Test results reported in patent US20220062340A1, “IMMUNOTHERAPEUTIC METHODS AND COMPOSITIONS” (KING'S COLLEGE LONDON, priority 2018, published 2022).
“And” between values parts separate entries of the source, which are not always exact repeats. Identical values can stand only once.

Experiments:
Type in all cases: cell-based, human
FOXP3 in Tregs = assay: FOXP3 expression of ex vivo expanded Tregs; conditions: Tregs expanded in the presence of the agonist
Experimental: (§1) FACS-sorted Treg populations were plated at 1×10^6 or 0.5×10^6 in X-VIVO-15 medium and activated with anti-CD3/anti-CD28 coated beads (Dynabeads®, Invitrogen, Paisley, UK) at 1:1 bead: cell ratio. Rapamycin was added at day 0 of culture at a final concentration of 100 nM/L +/−ATRA 1 nM/L or RAR568 1 nM/L. Next, 1,000 IU/ml recombinant human IL-2 (rhlL-2) (Proleukin®, Novartis, Camberley, UK) was added at day 5 of culture. Cells were re-stimulated every 10-12 days and expanded for a total of 24-30 days. The phenotype and suppressive ability were assessed at the end of the culture period.
(§2) Flow cytometry panels have been designed to assess the subtypes of regulatory T cells in patients with CD as well as their expression of gut homing molecules. Gating was performed based on natural populations when assessing for CD4^+CD25^highCD127low populations, as well as for CD45RA^+ Treg populations. Additionally, to minimize bias in the assessment of expression of gut homing markers and transcription factors, a fluorochrome minus one (FMO) panel was added for each marker of interest in each experiment that was performed.

integrin α4β7 on Tregs = assay: α4β7 expression on ex vivo expanded CD45RA+ Tregs from CD patients (flow cytometry); conditions: CD4+CD25hiCD127loCD45RA+ Tregs cultured with rapamycin and high dose IL-2 plus the agonist; mean ± SD
Experimental: “Complete X-VIVO-15” (Lonza, Walkersville, MD) was used for ex vivo Treg expansion, Treg cytokine challenge experiments and Treg suppression assays. This was supplemented with 100 nM or 10 nM Rapamycin and all-trans retinoic acid (ATRA) 2 μM or 1 nM, or Rapamycin and RAR568 1 nM.
as §1
as §2, with “performed. […]” for “performed.”

Tregs from CD patients = assay: Gene array of expanded Tregs from CD patients; conditions: compared to rapamycin only, n=3
Experimental: Gene array analyses were carried out using Partek® software with a 1-way ANOVA to assess for differential gene expression.
1) RNA extraction was performed using Qiagen RNEasy mini/micro kits as per manufacturer's instructions. The samples were checked for RNA quality using the Agilent 2100 Bioanalyzer and quantified using the Nanodrop (ND-1000 Spectrophotometer). Samples which passed QC (RIN>8) were chosen such that input amount of each sample was 3 ng.
2) SPIA cDNA was generated using the “Ovation Pico WTA System V2” kit from Nugen, following the manufacturer's instructions.
3) The SPIA cDNA was subjected to a QC check to assess quality (Agilent 2100 Bioanalyzer) and quantity (Nanodrop ND-1000 Spectrophotometer) for the next stage.
4) The SPIA cDNA was fragmented and Biotin-labelled using the “Encore Biotin Module” from Nugen according to the manufacturer's instructions and passed through QC checks to assess fragmentation size (Agilent 2100 Bioanalyzer).
6) Hybridization cocktails were prepared of the fragmented labelled-cDNA according to Nugen's recommendations and hybridized at 45° C. overnight in an oven.
7) The arrays were washed and stained using wash protocol FS450_0002 (Affymetrix protocol recommended for Human Gene 2.0 Arrays on the GeneChip Fluidics station 450.
8) The arrays were scanned using the Affymetrix GeneChip Scanner.
Gene expression analyses were performed on Tregs from CD patients expanded in the presence of Rapa+ATRA, Rapa+RAR568 or rapamycin only (n=3 in each group). […] CD161 has previously been described as a marker of T helper (Th) 17-like Tregs^32. This was not observed in the RAR568-treated group. […] IL-18 Receptor 1 and STAT4 are responsible for Th1 lineage commitment and IFNγ production, both have been independently identified as IBD disease related polymorphisms on GWAS^33-36. CD38 has been identified as a marker associated with mature T cells, signaling reduced proliferation, but an increased ability to produce pro-inflammatory cytokines such as IFNγ^37. Ligation of GPR174 negatively affects Treg accumulation and function^38. No clear difference in transcripts for canonical pathways were identified when ATRA treated cells were compared with RAR568 treated cells.
To assess for off target RARγ effects, we compared the gene expression profiles of RAR568 and ATRA treated cells to a published dataset of RARγ target genes^39. […] Given the efficacy at inducing α4β7 and lack of off target effects, RAR568 fulfilled the target product profile for an agent that could be used for ex vivo Treg expansion for cell-based therapy purposes. Therefore, we probed this effect of RAR568 on Tregs from CD patients in functional in vitro and in vivo trafficking assays.

CCOc1c(Cl)cc(C(=O)Nc2ccc(C(=O)O)c(C)c2)cc1OC(C)C [RAR568]
FOXP3 expression of expanded Tregs (FOXP3 in Tregs; mean ± SD): 96.99% ±3.51 | FOXP3 expression, range (FOXP3 in Tregs; range): 91.5-99.8 | α4β7 expression of expanded Tregs (integrin α4β7 on Tregs): 95.9±1.93 and 95.89±1.93 | transcripts for CD161 (Tregs from CD patients): not observed
